Assay results taken from ChEMBL document CHEMBL1201862, “PubChem BioAssay data set” (2004).
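Briefly, cells in 96-well plates were exposed to five compound concentrations for 48 h, and endpoints were estimated by linear interpolation. Abbreviation: GI50, concentration required for 50% inhibition of growth.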 Active and inactive are the calls of the source. Cut-off read from the data, not from the text of the source: active = GI50 up to about 1.1 µM and inactive = higher.

Columns and labels:
Assay in all cases: NCI anticancer screen, dose series, 48 h
TK-10 = tested on: TK-10
SK-MEL-5 = tested on: SK-MEL-5
HT-29 = tested on: HT-29
MDA-MB-435 = tested on: MDA-MB-435
HCC 2998 = tested on: HCC 2998
CCRF-CEM = tested on: CCRF-CEM
SW-620 = tested on: SW-620
EKVX = tested on: EKVX
SNB-75 = tested on: SNB-75
SR = tested on: SR
RPMI-8226 = tested on: RPMI-8226
HOP-62 = tested on: HOP-62
A498 = tested on: A498
UO-31 = tested on: UO-31
HCT-116 = tested on: HCT-116
M14 = tested on: M14
SK-MEL-2 = tested on: SK-MEL-2
Hs-578T = tested on: Hs-578T
NCI/ADR-RES = tested on: NCI/ADR-RES
UACC-257 = tested on: UACC-257
CAKI-1 = tested on: CAKI-1
OVCAR-8 = tested on: OVCAR-8
HOP-92 = tested on: HOP-92
A549 = tested on: A549
NCI-H226 = tested on: NCI-H226
786-0 = tested on: 786-0
RXF 393 = tested on: RXF 393
COLO 205 = tested on: COLO 205
LOX IMVI = tested on: LOX IMVI
U-251 = tested on: U-251
HL-60 = tested on: HL-60
SF-539 = tested on: SF-539
IGROV-1 = tested on: IGROV-1
ACHN = tested on: ACHN
KM12 = tested on: KM12
Malme-3M = tested on: Malme-3M
BT-549 = tested on: BT-549
PC-3 = tested on: PC-3
SNB-19 = tested on: SNB-19
OVCAR-4 = tested on: OVCAR-4
SF-295 = tested on: SF-295
MDA-N = tested on: MDA-N
OVCAR-3 = tested on: OVCAR-3
SK-OV-3 = tested on: SK-OV-3
DU-145 = tested on: DU-145
SF-268 = tested on: SF-268
SK-MEL-28 = tested on: SK-MEL-28
MCF7 = tested on: MCF7
NCI-H23 = tested on: NCI-H23
MOLT-4 = tested on: MOLT-4
UACC-62 = tested on: UACC-62
NCI-H522 = tested on: NCI-H522
OVCAR-5 = tested on: OVCAR-5
T47D = tested on: T47D
NCI-H460 = tested on: NCI-H460
SN12C = tested on: SN12C
MDA-MB-231 = tested on: MDA-MB-231
K562 = tested on: K562
HCT-15 = tested on: HCT-15

For CC(C)C[C@H](NC(=O)[C@H](Cc1ccc(F)cc1)NC(=O)c1ccccn1)B(O)O, the GI50 (TK-10) was < 10 nM (active), the GI50 (SK-MEL-5) was < 10 nM (active) and the GI50 (HT-29) was < 10 nM (active). The GI50 (MDA-MB-435) was < 10 nM (active), the GI50 (HCC 2998) was < 10 nM (active) and the GI50 (CCRF-CEM) was < 10 nM (active). The GI50 (SW-620) was < 10 nM (active), the GI50 (EKVX) was < 10 nM (active) and the GI50 (SNB-75) was < 10 nM (active). The GI50 (SR) was < 10 nM (active), the GI50 (RPMI-8226) was < 10 nM (active) and the GI50 (HOP-62) was < 10 nM (active). The GI50 (A498) was < 10 nM (active), the GI50 (UO-31) was < 10 nM (active) and the GI50 (HCT-116) was < 10 nM (active). For the same compound, the GI50 (M14) was < 10 nM (active), the GI50 (SK-MEL-2) was < 10 nM (active) and the GI50 (Hs-578T) was < 10 nM (active). The GI50 (NCI/ADR-RES) was < 10 nM (active), the GI50 (UACC-257) was < 10 nM (active) and the GI50 (CAKI-1) was < 10 nM (active). For the same compound, the GI50 (OVCAR-8) was < 10 nM (active), the GI50 (HOP-92) was < 10 nM (active) and the GI50 (A549) was < 10 nM (active). The GI50 (NCI-H226) was < 10 nM (active), the GI50 (786-0) was < 10 nM (active) and the GI50 (RXF 393) was < 10 nM (active). For the same compound, the GI50 (COLO 205) was < 10 nM (active), the GI50 (LOX IMVI) was < 10 nM (active) and the GI50 (U-251) was < 10 nM (active). The GI50 (HL-60) was < 10 nM (active), the GI50 (SF-539) was < 10 nM (active) and the GI50 (IGROV-1) was < 10 nM (active). For the same compound, the GI50 (ACHN) was < 10 nM (active), the GI50 (KM12) was < 10 nM (active) and the GI50 (Malme-3M) was < 10 nM (active). For the same compound, the GI50 (BT-549) was < 10 nM (active), the GI50 (PC-3) was < 10 nM (active) and the GI50 (SNB-19) was < 10 nM (active). The GI50 (OVCAR-4) was < 10 nM (active), the GI50 (SF-295) was < 10 nM (active) and the GI50 (MDA-N) was < 10 nM (active). The GI50 (OVCAR-3) was < 10 nM (active), the GI50 (SK-OV-3) was < 14.8 nM (active) and the GI50 (DU-145) was < 10 nM (active). The GI50 (SF-268) was < 10 nM (active), the GI50 (SK-MEL-28) was < 10 nM (active) and the GI50 (MCF7) was < 10 nM (active). For the same compound, the GI50 (NCI-H23) was < 10 nM (active), the GI50 (MOLT-4) was < 10 nM (active) and the GI50 (UACC-62) was < 10 nM (active). For the same compound, the GI50 (NCI-H522) was < 10 nM (active), the GI50 (OVCAR-5) was < 10 nM (active) and the GI50 (T47D) was < 10 nM (active). For the same compound, the GI50 (NCI-H460) was < 10 nM (active), the GI50 (SN12C) was < 10 nM (active) and the GI50 (MDA-MB-231) was < 10 nM (active). For the same compound, the GI50 (K562) was < 10 nM (active) and the GI50 (HCT-15) was < 10 nM.

In the case of CN(C)CC1CCC/C(=C\c2ccc(OC(=O)/C=C/c3ccc(Cl)cc3)cc2)C1=O (stereo not drawn), the GI50 (TK-10) is reported as 1310 nM (inactive), the GI50 (SK-MEL-5) is reported as 2160 nM (inactive) and the GI50 (HT-29) is reported as 2070 nM (inactive). For the same compound, the GI50 (MDA-MB-435) was 5280 nM (inactive), the GI50 (HCC 2998) was 5430 nM (inactive) and the GI50 (CCRF-CEM) was 1060 nM (active). For the same compound, the GI50 (SW-620) was 1690 nM (inactive), the GI50 (EKVX) was 7140 nM (inactive) and the GI50 (SNB-75) was 8930 nM (inactive). The GI50 (SR) was 1090 nM (active), the GI50 (RPMI-8226) was 294 nM (active) and the GI50 (HOP-62) was 6250 nM (inactive). For the same compound, the GI50 (A498) was 8530 nM (inactive), the GI50 (UO-31) was 4990 nM (inactive) and the GI50 (HCT-116) was 3560 nM (inactive). For the same compound, the GI50 (M14) was 6100 nM (inactive), the GI50 (SK-MEL-2) was 9820 nM (inactive) and the GI50 (Hs-578T) was 4920 nM (inactive). The GI50 (NCI/ADR-RES) was 7430 nM (inactive), the GI50 (UACC-257) was 11500 nM (inactive) and the GI50 (CAKI-1) was 2620 nM (inactive). For the same compound, the GI50 (OVCAR-8) was 5620 nM (inactive), the GI50 (HOP-92) was 1570 nM (inactive) and the GI50 (A549) was 8490 nM (inactive). The GI50 (NCI-H226) was 11000 nM (inactive), the GI50 (786-0) was 1070 nM (active) and the GI50 (RXF 393) was 1320 nM (inactive). The GI50 (COLO 205) was 780 nM (active), the GI50 (LOX IMVI) was 1580 nM (inactive) and the GI50 (U-251) was 3130 nM (inactive). For the same compound, the GI50 (HL-60) was 1070 nM (active), the GI50 (SF-539) was 2570 nM (inactive) and the GI50 (IGROV-1) was 1430 nM (inactive). The GI50 (ACHN) was 2430 nM (inactive), the GI50 (KM12) was 1470 nM (inactive) and the GI50 (Malme-3M) was 9060 nM (inactive). For the same compound, the GI50 (BT-549) was 217 nM (active), the GI50 (PC-3) was 5350 nM (inactive) and the GI50 (SNB-19) was 8430 nM (inactive). The GI50 (OVCAR-4) was 12500 nM (inactive), the GI50 (SF-295) was 7600 nM (inactive) and the GI50 (MDA-N) was 6900 nM (inactive). For the same compound, the GI50 (OVCAR-3) was 4970 nM (inactive), the GI50 (SK-OV-3) was 21300 nM (inactive) and the GI50 (DU-145) was 5200 nM (inactive). For the same compound, the GI50 (SF-268) was 4090 nM (inactive), the GI50 (SK-MEL-28) was 6140 nM (inactive) and the GI50 (MCF7) was 1080 nM (active). For the same compound, the GI50 (NCI-H23) was 6650 nM (inactive), the GI50 (MOLT-4) was 1050 nM (active) and the GI50 (UACC-62) was 8810 nM (inactive). For the same compound, the GI50 (NCI-H522) was 916 nM (active), the GI50 (OVCAR-5) was 16700 nM (inactive) and the GI50 (T47D) was 1150 nM (inactive). The GI50 (NCI-H460) was 8020 nM (inactive), the GI50 (SN12C) was 3920 nM (inactive) and the GI50 (MDA-MB-231) was 5210 nM (inactive). For the same compound, the GI50 (K562) was 1230 nM (inactive) and the GI50 (HCT-15) was 2010 nM.
